Experimental data from US20150051262A1, “NMDA RECEPTOR MODULATORS AND USES THEREOF” (Northwestern University, priority 2011, published 2015).
Like-named read-outs stand apart in the source and are kept apart here. Residues, ends and D or L forms follow the SMILES beside them.

Tests used:
[1] = molecular target: NMDA receptor (Rattus norvegicus, UniProt P35439); experiment: [^3H] MK-801 binding assay; settings: for Emax: read-out: Efficacy (% Increase in [^3H] MK-801 Binding)
[2] = Kinetic aqueous solubility (pION method); format: physicochemical; settings: pH 7.4, conc. tested 200 μM with 1% DMSO, 16 h incubation
[3] = test system: MDCK (Madin-Darby Canine Kidney Cells); experiment: in vitro; settings: concentration 5 μM; for Papp (10^−6 cm/sec): HBSS pH 7.4
Method: Procedure. Permeability of test compounds was assessed using MDCK (Madin-Darby Canine Kidney Cells) using the below parameters. • Test concentration: 5 μM (n=3) • Buffer: HBSS pH 7.4 • Time points: 0, 15, 30, 60 and 90 min • Analysis: Parent compound monitoring using LC-MS/MS

[4] = Metabolic stability in liver microsomes, human; format: in vitro ADME; settings: Human (M) microsomes, 1 μM
Method: (§1) Metabolic stability was assessed in liver microsomes as well as in hepatocytes with few compounds.
(§2) Procedure for microsomal stability: • Species: Rat and human • Test concentration: 1 μM (n=2) • Protein concentration: 0.125 mg/mL • Time points: 0, 5, 15, 30 and 60 minutes • Controls: Minus NADPH and buffer • Analysis: Parent compound monitoring LC-MS/MS (Peak area ratios)

[5] = test system: Schaffer collateral-evoked NMDA EPSCs in CA1 pyramidal neurons; experiment: Long-term potentiation (LTP) assay procedure 2; format: cell-based, Sprague-Dawley rats; settings: 1 μM, FIG. 8, P<0.05
Method: Assays were conducted as described in Zhang et al. (2008). Sprague-Dawley rats (12-18 days old; Taconic Farms) were deeply anesthetized with isoflurane and decapitated. Brains was removed rapidly, submerged in ice-cold artificial cerebrospinal fluid (ACSF, 2-4° C.), which contained (in mM): 124 NaCl, 4 KCl, 2 MgSO4, 2 CaC12, 1.25 NaH2PO4, 26 NaHCO3, 10 glucose; at pH 7.4, gassed continuously with 95% O2/5% CO2). Brains were hemisected, the frontal lobes cut off, and individual hemispheres glued using cyanoacrylate adhesive onto a stage immersed in ice-cold ACSF gassed continuously with 95% O2/5% CO2 during slicing. […] Bath application of test compounds (1 μM) was applied 30 min prior to application of Schaffer collateral stimulus trains to elicit LTP. LTP was induced by stimulation of Schaffer collateral axons with four high frequency theta burst stimulus trains of 10×100 Hz/5 pulse bursts each, applied at an inter-burst interval of 200 ms. Each train was 2 s in duration, and trains were applied 15 s apart.

[6] = Metabolic stability in liver microsomes, rat; format: in vitro ADME; settings: Rat (M) microsomes, 1 μM
Method: as §1, §2

[7] = test system: floating behavior; experiment: Porsolt test procedure 2; format: in vivo, Sprague Dawley rats; settings: 1 hr post-dosing
Method: The antidepressant-like effects of test compounds were examined with the rat Porsolt test as described in Page et al. (1999) and Burgdorf et al. (2009). Male Sprague Dawley rats (2-3 month old) were used in this study. Animals were dosed with test compounds (0.3 mg/kg IV) or sterile saline vehicle (1 ml/kg IV tail vein) 1 hr before a single test session. […] Water was changed after every other animal. […] CM-6A, CM-7A, CM-8A, and CM-9A were tested in the Porsolt test. CM-5A was not tested in the Porsolt test.
Animals received a single 15 min Porsolt habituation session on the day before the first 5 min Porsolt test. N=6 per group. *P<0.05 Fisher's PLSD post hoc test vs. vehicle.

[8] = test system: floating behavior; experiment: Porsolt test procedure 2; format: in vivo, Sprague Dawley rats; settings: single dose (0.3 mg/kg IV), 24 hrs post-dosing, FIG. 11C
[9] = Metabolic stability in hepatocytes, human; format: in vitro ADME; settings: Human (H) hepatocytes, 10 μM
Method: as §1
(§3) Procedure for hepatocyte stability: • Stock preparation: DMSO • Buffer: Krebs Henseleit Buffer • Total Incubation volume: […] • Cell density: 1 million cells/mL • Test concentration: 10 μM with 0.5% DMSO (n=2) • Time points: 0 and 60 min • Analysis: LC-MS/MS

[10] = Metabolic stability in hepatocytes, rat; format: in vitro ADME; settings: Rat (H) hepatocytes, 10 μM
Method: as §1, §3

[11] = single dose 0.3 mg/kg IV, FIG. 11A
[12] = single dose (0.3 mg/kg IV), FIG. 11B

CC(O)C(N)C(=O)N1CCCC1C(=O)N1CCCC1(Cc1ccc(C(F)(F)F)cc1)C(=O)NC(C(N)=O)C(C)O (stereo not drawn) [CM-7] showed an EC50 [1] of 10.6 nM and an Emax [1] of 13%.
For CC/C(=C(/CC)c1ccc(O)cc1)c1ccc(O)cc1 [DES, reference compound], the “Mean Solubility (N = 3) at pH” value [2] was 2.6 ± 2.1.
For Cc1cccc(C[C@@]2(C(=O)N[C@H](C(N)=O)[C@@H](C)O)CCCN2C(=O)[C@@H]2CCCN2C(=O)[C@@H](N)[C@@H](C)O)c1 [CM-8A, (R)-N-((2S,3R)-1-amino-3-hydroxy-1-oxobutan-2-yl)-1-((S)-1-((2S,3R)-2-amino-3-hydroxybutanoyl)pyrrolidine-2-carbonyl)-2-(3-methylbenzyl) pyrrolidine-2-carboxamide], the Permeability classification [3] was “Low (≦3 × 10^−6 cm/sec)”, the Recovery [3] was 83 and the “Papp (10^−6 cm/sec)” value [3] was 0.14 ± 0.01 10^−6 cm/sec. The “% Remaining at 60 minutes” value [4] was 75%, the “Half-life” value [4] was greater than 1 h and the “Stability Class” value [4] was “Moderate (% Remaining 70-90%)”. For the same compound, the “long-term potentiation after high frequency stimulation (fEPSP slope)” value (from here on “long-term potentiation … (fEPSP slope)”) [5] was “increased long-term potentiation”, the “Mean Solubility (N = 3) at pH” value [2] was greater than 200 and the “% Remaining at 60 minutes” value [6] was 91%. For the same compound, the “Half-life” value [6] was greater than 1 h, the “Stability Class” value [6] was “Stable (% Remaining >90%)” and the “floating time in the Porsolt test” value [7, 11] was “produced an antidepressant-like effect”. For the same compound, the “floating time in the Porsolt test” value [7, 12] was “produced an antidepressant-like effect” and the “floating time in the Porsolt test” value [8] was “produced an antidepressant-like effect”.
In the case of C[C@@H](O)[C@H](N)C(=O)N1CCC[C@H]1C(=O)N1CCC[C@@]1(Cc1cccc(F)c1)C(=O)N[C@H](C(N)=O)[C@@H](C)O [CM-9A, (R)-N-((2S,3R)-1-amino-3-hydroxy-1-oxobutan-2-yl)-1-((S)-1-((2S,3R)-2-amino-3-hydroxybutanoyl)pyrrolidine-2-carbonyl)-2-(3-fluorobenzyl) pyrrolidine-2-carboxamide], the Permeability classification [3] is reported as “Low (≦3 × 10^−6 cm/sec)”, the Recovery [3] is reported as 100 and the “% Remaining at 60 minutes” value [4] is reported as 69%. For the same compound, the “Half-life” value [4] was greater than 1 h, the “Stability Class” value [4] was “Unstable (% Remaining <70%)” and the “long-term potentiation … (fEPSP slope)” value [5] was “increased long-term potentiation”. For the same compound, the “Mean Solubility (N = 3) at pH” value [2] was 148 ± 42, the “% Remaining at 60 minutes” value [6] was 100% and the “Half-life” value [6] was greater than 1 h. The “Stability Class” value [6] was “Stable (% Remaining >90%)”, the “floating time in the Porsolt test” value [7, 11] was “produced an antidepressant-like effect” and the “floating time in the Porsolt test” value [7, 12] was “produced an antidepressant-like effect”. For the same compound, the “floating time in the Porsolt test” value [8] was “produced an antidepressant-like effect”.
Compound CC(O)C(N)C(=O)N1CCCC1C(=O)N1CCCC1(Cc1cc(Br)cc(Br)c1)C(=O)NC(C(N)=O)C(C)O (stereo not drawn) [CM-12] has an EC50 [1] of 2.21 nM and an Emax [1] of 13%.
Work on CC(O)C(N)C(=O)N1CCCC1C(=O)N1CCCC1(Cc1cccc(F)c1)C(=O)NC(C(N)=O)C(C)O (stereo not drawn) [CM-9] yielded an EC50 [1] of 0.007 nM and an Emax [1] of 15%.
For Cc1ccc(C[C@@]2(C(=O)N[C@H](C(N)=O)[C@@H](C)O)CCCN2C(=O)[C@@H]2CCCN2C(=O)[C@@H](N)[C@@H](C)O)cc1 [CM-5A, (R)-N-((2S,3R)-1-amino-3-hydroxy-1-oxobutan-2-yl)-1-((S)-1-((2S,3R)-2-amino-3-hydroxybutanoyl)pyrrolidine-2-carbonyl)-2-(4-methylbenzyl) pyrrolidine-2-carboxamide], the Permeability classification [3] was “Low (≦3 × 10^−6 cm/sec)”, the Recovery [3] was 100 and the “% Remaining at 60 minutes” value [4] was 86%. For the same compound, the “Half-life” value [4] was greater than 1 h, the “Stability Class” value [4] was “Moderate (% Remaining 70-90%)” and the “Mean Solubility (N = 3) at pH” value [2] was greater than 200. The “% Remaining at 60 minutes” value [6] was 95%, the “Half-life” value [6] was greater than 1 h and the “Stability Class” value [6] was “Stable (% Remaining >90%)”.
CC(O)C(N)C(=O)N1CCCC1C(=O)N1CCCC1(Cc1ccc(F)cc1)C(=O)NC(C(N)=O)C(C)O (stereo not drawn) [CM-6] gave an Emax [1] of 12%.
Work on COc1ccc(CC2(C(=O)N[C@H](C(N)=O)[C@@H](C)O)CCCN2C(=O)[C@@H]2CCCN2C(=O)[C@@H](N)[C@@H](C)O)cc1 (stereo partly drawn) [CM-11] yielded an EC50 [1] of 0.013 nM and an Emax [1] of 9%.
In the case of C[C@@H](O)[C@H](NC(=O)[C@@H]1CCCN1C(=O)[C@@H]1CCCN1C(=O)[C@@H](N)CO)C(N)=O [CM-1, (S)-N-((2S,3R)-1-amino-3-hydroxy-1-oxobutan-2-yl)-1-((S)-1-((S)-2-amino-3-hydroxypropanoyl)pyrrolidine-2-carbonyl)pyrrolidine-2-carboxamide] (H-SPPT-NH2), the EC50 [1] is reported as 0.005 nM.
With C[C@@H](O)[C@H](N)C(=O)N1CCC[C@H]1C(=O)N1CCC[C@@]1(Cc1ccc(C(F)(F)F)cc1)C(=O)N[C@H](C(N)=O)[C@@H](C)O [CM-7A, (R)-N-((2S,3R)-1-amino-3-hydroxy-1-oxobutan-2-yl)-1-((S)-1-((2S,3R)-2-amino-3-hydroxybutanoyl)pyrrolidine-2-carbonyl)-2-(4-(trifluoromethyl)benzyl) pyrrolidine-2-carboxamide] the Permeability classification [3] was “Low (≦3 × 10^−6 cm/sec)”, the Recovery [3] was 68 and the “Papp (10^−6 cm/sec)” value [3] was 0.11 ± 0.0 10^−6 cm/sec. For the same compound, the “long-term potentiation … (fEPSP slope)” value [5] was “increased long-term potentiation”, the “% Remaining at 60 minutes” value [9] was 92% and the “Half-life” value [9] was greater than 1 h. The “Stability Class” value [9] was “Stable (% Remaining >90%)”, the “floating time in the Porsolt test” value [7, 11] was “produced an antidepressant-like effect” and the “floating time in the Porsolt test” value [7, 12] was “produced an antidepressant-like effect”. For the same compound, the “% Remaining at 60 minutes” value [10] was 76%, the “Half-life” value [10] was greater than 1 h and the “Stability Class” value [10] was “Moderate (% Remaining 70-90%)”. The “floating time in the Porsolt test” value [8] was “produced an antidepressant-like effect”.
With C[C@@H](O)[C@H](N)C(=O)N1CCC[C@H]1C(=O)N1CCC[C@H]1C(=O)N[C@@H](CO)C(N)=O [CM-2, (S)-N-((S)-1-amino-3-hydroxy-1-oxopropan-2-yl)-1-((S)-1-((2S,3R)-2-amino-3-hydroxybutanoyl)pyrrolidine-2-carbonyl) pyrrolidine-2-carboxamide] (H-TPPS-NH2) the “Efficacy (% Increase in [^3H] MK-801 Binding)” value ([1]; best-fit top value, 50 μM glutamate) was 24% and the EC50 ([1]; rat forebrain membranes, 50 μM glutamate, read-out: Potency (EC50)) was 0.006 nM.
In the case of NC(=O)[C@H](CO)NC(=O)[C@@H]1CCCN1C(=O)[C@@H]1CCCN1C(=O)[C@@H](N)CO [CM-3, (S)-N-((S)-1-amino-3-hydroxy-1-oxopropan-2-yl)-1-((S)-1-((S)-2-amino-3-hydroxy-propanoyl)-pyrrolidine-2-carbonyl)-pyrrolidine-2-carboxamide] (H-SPPS-NH2), the EC50 [1] is reported as 0.016 nM.
Compound COc1cc(CC2(C(=O)NC(C(N)=O)C(C)O)CCCN2C(=O)C2CCCN2C(=O)C(N)C(C)O)cc(OC)c1OC (stereo not drawn) [CM-14] has an EC50 [1] of 0.443 nM and an Emax [1] of 8%.
Cc1cccc(CC2(C(=O)NC(C(N)=O)C(C)O)CCCN2C(=O)C2CCCN2C(=O)C(N)C(C)O)c1 (stereo not drawn) [CM-8] gave an EC50 [1] of 0.006 nM and an Emax [1] of 16%.
COc1cccc(CC2(C(=O)NC(C(N)=O)C(C)O)CCCN2C(=O)C2CCCN2C(=O)C(N)C(C)O)c1 (stereo not drawn) [CM-13] gave an Emax [1] of 10%.
C[C@@H](O)[C@H](NC(=O)C1(Cc2ccccc2)CCCN1C(=O)[C@@H]1CCCN1C(=O)[C@@H](N)CO)C(N)=O (stereo partly drawn) [CM-10, N-((2S,3R)-1-amino-3-hydroxy-1-oxobutan-2-yl)-1-((S)-1-((S)-2-amino-3-hydroxypropanoyl)pyrrolidine-2-carbonyl)-2-benzylpyrrolidine-2-carboxamide] gave an Emax [1] of 16%.
